Measurements published in PMC5180209 (Structure (London, England : 1993), 2016).

Target: B56 (Homo sapiens, UniProt Q13362)
Test: Isothermal titration calorimetry
Type: binding
Details: ITC

increase of binding affinity for B56 as the salt concentration is reduced (salt concentration 300 mM to 150 mM) | reduction of binding to B56 on removing residue 676 altogether (668KLpSPIIED675 compared with the 668-676 peptides) | Substance
~ 3.6 fold |  | KLpSPIIEDE
 | ~ 1.7 fold | KLpSPIIED
